In ChEMBL document CHEMBL5131385, “Novel piperazine based benzamide derivatives as potential anti-glioblastoma agents inhibiting cell proliferation and cell cycle progression” (Eur J Med Chem, 2022):
Activity calls are given as the source filed them. No cut-off for these calls is given here.

What was measured:
U-251 [1] = assay: Induction of apoptosis in human U-251 cells assessed as necrotic cells at 6 uM incubated for 72 hrs by Annexin V-FITC/PI staining based flow cytometry method (Rvb =0.51 %); assay type: functional
[2] = Induction of apoptosis in human U-87 MG cells assessed as late apoptotic cells at 0.30 uM incubated for 72 hrs by Annexin V-FITC/PI staining based flow cytometry method (reference value: 0.42 %); assay type: functional, U-87MG ATCC; settings: dose 0.3 µM
U-87MG ATCC [3] = assay: Antitumor activity against human U-87 MG cells xenografted in BALB/c mouse assessed as decrease in tumor weight at 10 mg/kg,ip bid for 1 month; assay type: functional, organism-based; settings: time 1.0 months
U-251 [4] = assay: Antiinvasive activity against human U-251 cells assessed as inhibition of cell invasion at 0.25 to 1.0 uM measured after 24 hrs by transwell invasion assay; assay type: functional, cell-based; settings: dose 0.25-1 µM, DDE = dose-dependent effect
[5] = Acute toxicity in Kunming mouse assessed as pathological changes in liver at 600 mg/kg, ip measured after 24 hrs by H and E staining analysis; assay type: organism-based; settings: in vivo
U-87MG ATCC [6] = assay: Induction of cell cycle arrest in human U-87 MG cells assessed as decrease in accumulation at G2/M phase at 0.075 to 1.20 uM measured after 72 hrs by flow cytometry; assay type: functional, cell-based; settings: dose 0.075-1.2 µM, DDE = dose-dependent effect
[7] = Acute toxicity in Kunming mouse assessed as survival at 600 mg/kg, ip measured after 14 days; assay type: organism-based; settings: in vivo, 336 h, time 14 day
[8] = Acute toxicity in Kunming mouse assessed as pathological changes in heart at 600 mg/kg, ip measured after 24 hrs by H and E staining analysis; assay type: organism-based; settings: in vivo
U-251 [9] = assay: Induction of apoptosis in human U-251 cells assessed as late apoptotic cells at 0.375 uM incubated for 72 hrs by Annexin V-FITC/PI staining based flow cytometry method (Rvb =1.31 %); assay type: functional
[10] = Half life in Sprague-Dawley rat plasma at 100 mg/kg, ip and measured upto 240 mins by LC-MS analysis; assay type: ADME, organism-based
U-251 [11] = assay: Downregulation of E2F gene expression in human U-251 cells at 0.075 to 1.2 uM measured after 72 hrs by western blot analysis; assay type: functional, cell-based; settings: dose 0.075-1.2 µM
[12] = Induction of apoptosis in human U-87 MG cells assessed as necrotic cells at 1.20 uM incubated for 72 hrs by Annexin V-FITC/PI staining based flow cytometry method (reference value: 0.21 %); assay type: functional, U-87MG ATCC; settings: dose 1.2 µM
U-251 [13] = assay: Antiproliferative activity against human U-251 cells assessed as reduction in colony number at 0.25 to 1 uM for 2 to 3 weeks by crystal violet staining based plate clone formation assay; assay type: functional, cell-based; settings: dose 0.25-1 µM, time 2-3 weeks, DDE = dose-dependent effect
U-251 [14] = assay: Induction of apoptosis in human U-251 cells assessed as enlargement of intracellular space at 0.375 to 6 uM measured after 72 hrs by Giemsa staining based microscopic analysis; assay type: functional, cell-based; settings: dose 0.375-6 µM
[15] = Permeability of compound across blood brain barrier in Sprague-Dawley rat at 100 mg/kg, ip and measured after 240 mins by LC-MS analysis; assay type: ADME, organism-based; settings: read-out: BBR
U-87MG ATCC [16] = assay: Downregulation of CDK6 gene expression in human U-87 MG cells at 0.075 to 1.2 uM measured after 72 hrs by western blot analysis; assay type: functional, cell-based; settings: dose 0.075-1.2 µM
[17] = Induction of apoptosis in human U-87 MG cells assessed as late apoptotic cells at 0.075 uM incubated for 72 hrs by Annexin V-FITC/PI staining based flow cytometry method (reference value: 0.42 %); assay type: functional, U-87MG ATCC
[18] = Induction of apoptosis in human U-87 MG cells assessed as late apoptotic cells at 1.20 uM incubated for 72 hrs by Annexin V-FITC/PI staining based flow cytometry method (reference value: 0.42 %); assay type: functional, U-87MG ATCC; settings: dose 1.2 µM
U-251 [19] = assay: Downregulation of pRb gene expression in human U-251 cells at 0.075 to 1.2 uM measured after 72 hrs by western blot analysis; assay type: functional, cell-based; settings: dose 0.075-1.2 µM
U-251 [20] = assay: Downregulation of cyclin D1 gene expression in human U-251 cells at 0.075 to 1.2 uM measured after 72 hrs by western blot analysis; assay type: functional, cell-based; settings: dose 0.075-1.2 µM
U-251 [21] = assay: Antiproliferative activity against human U-251 cells assessed as inhibition of cell proliferation measured after 72 hrs by CCK8 assay; assay type: functional, cell-based; settings: U-251, 72 h
U-251 [22] = assay: Induction of apoptosis in human U-251 cells assessed as formation of spindle shaped cells at 0.375 to 6 uM measured after 72 hrs by Giemsa staining based microscopic analysis; assay type: functional, cell-based; settings: dose 0.375-6 µM
U-251 [23] = assay: Antimigratory activity in human U-251 cells assessed as inhibition of cell migration by measuring wound closure at 0.25 to 1.0 uM and measured after 24 hrs by wound healing assay; assay type: functional, cell-based; settings: dose 0.25-1 µM, DDE = dose-dependent effect
U-251 [24] = assay: Induction of apoptosis in human U-251 cells assessed as early apoptotic cells at 6 uM incubated for 72 hrs by Annexin V-FITC/PI staining based flow cytometry method (Rvb =1.96 %); assay type: functional
U-251 [25] = assay: Induction of cell cycle arrest in human U-251 cells assessed as decrease in accumulation at S phase at 0.75 to 3 uM measured after 72 hrs by flow cytometry; assay type: functional, cell-based; settings: dose 0.75-3 µM, DDE = dose-dependent effect
U-251 [26] = assay: Induction of apoptosis in human U-251 cells assessed as late apoptotic cells at 6 uM incubated for 72 hrs by Annexin V-FITC/PI staining based flow cytometry method (Rvb =1.31 %); assay type: functional
U-87MG ATCC [27] = assay: Downregulation of cyclin D1 gene expression in human U-87 MG cells at 0.075 to 1.2 uM measured after 72 hrs by western blot analysis; assay type: functional, cell-based; settings: dose 0.075-1.2 µM
U-251 [28] = assay: Induction of apoptosis in human U-251 cells assessed as viable cells at 0.375 uM incubated for 72 hrs by Annexin V-FITC/PI staining based flow cytometry method (reference value: 96.22 %); assay type: functional; settings: read-out: Activity
U-87MG ATCC [29] = assay: Induction of cell cycle arrest in human U-87 MG cells assessed as decrease in accumulation at S phase at 0.075 to 1.20 uM measured after 72 hrs by flow cytometry; assay type: functional, cell-based; settings: dose 0.075-1.2 µM, DDE = dose-dependent effect
[30] = Induction of apoptosis in human U-87 MG cells assessed as necrotic cells at 0.30 uM incubated for 72 hrs by Annexin V-FITC/PI staining based flow cytometry method (reference value: 0.21 %); assay type: functional, U-87MG ATCC; settings: dose 0.3 µM
U-251 [31] = assay: Induction of apoptosis in human U-251 cells assessed as viable cells at 6 uM incubated for 72 hrs by Annexin V-FITC/PI staining based flow cytometry method (reference value: 96.22 %); assay type: functional; settings: read-out: Activity
U-87MG ATCC [32] = assay: Induction of apoptosis in human U-87 MG cells assessed as reduction in cell count at 0.075 to 1.20 uM measured after 72 hrs by Giemsa staining based microscopic analysis; assay type: functional; settings: dose 0.075-1.2 µM
[33] = Induction of apoptosis in human U-87 MG cells assessed as viable cells at 0.30 uM incubated for 72 hrs by Annexin V-FITC/PI staining based flow cytometry method (reference value: 96.84 %); assay type: functional, U-87MG ATCC; settings: read-out: Activity
[34] = Antiproliferative activity against human U-87 MG cells assessed as inhibition of cell proliferation measured after 72 hrs by CCK8 assay; assay type: functional, cell-based, U-87MG ATCC
[35] = Half life in Sprague-Dawley rat brain at 100 mg/kg, ip and measured upto 240 mins by LC-MS analysis; assay type: ADME, organism-based

In the case of `COCCN1CCN(c2ccc(F)cc2C(=O)Nc2ccc(CNC(=O)OCc3cccnc3)cc2)CC1`, the Activity (U-251 [1]) is reported as 2.63%, the Activity [2] is reported as 0.95% and the Activity (U-87MG ATCC [3]) is reported as “Active”. For the same compound, the Activity (U-251 [4]) was “Dde”, the Activity [5] was “Non-Toxic” and the Activity (U-87MG ATCC [6]) was “Dde”. The Activity [7] was “Non-Toxic”, the Activity [8] was “Non-Toxic” and the Activity (U-251 [9]) was 1.61%. For the same compound, the half-life [10] was 52.8 min, the Activity (U-251 [11]) was “Active” and the Activity [12] was 1.76%. For the same compound, the Activity (U-251 [13]) was “Dde”, the Activity (U-251 [14]) was “Active” and the Kp at 4 h [15] was 1.07. For the same compound, the Activity (U-87MG ATCC [16]) was “Active”, the Activity [17] was 0.41% and the Activity [18] was 9.97%. The Activity (U-251 [19]) was “Active”, the Activity (U-251 [20]) was “Active” and the IC50 (U-251 [21]) was 1280 nM. For the same compound, the Activity (U-251 [22]) was “Active”, the Activity (U-251 [23]) was “Dde” and the Activity (U-251 [24]) was 4.81%. The Activity (U-251 [25]) was “Dde”, the Activity (U-251 [26]) was 5.75% and the Activity (U-87MG ATCC [27]) was “Active”. For the same compound, the viability at 0.375 µM (U-251 [28]) was 95.9%, the Activity (U-87MG ATCC [29]) was “Dde” and the Activity [30] was 0.34%. The viability at 6 µM (U-251 [31]) was 86.8%, the Activity (U-87MG ATCC [32]) was “Active” and the viability at 0.3 µM [33] was 94.2%. For the same compound, the IC50 [34] was 290 nM and the half-life [35] was 43.8 min.
